The test system of assay [1] is peptide-pulsed A24LCL cells or T2 cells. Put plainly: In vitro CTL induction by peptide-loaded dendritic cells (summary statements). It counts as cell-based, human. The conditions noted are these: for specific CTL activity: against peptide pulsed target cells; for establishment of CTLs: in vitro stimulation of T-cells by DCs loaded with peptide. From the text: Confirmation of CTL inducibility can be accomplished by inducing antigen-presenting cells carrying human MHC antigens (for example, B-lymphocytes, macrophages, and dendritic cells), or more specifically dendritic cells derived from human peripheral blood mononuclear leukocytes, and after stimulation with the peptides, mixing with CD8-positive cells, and then measuring the IFN-gamma produced and released by CTL against the target cells. As the reaction system, transgenic animals that have been produced to express a human HLA antigen (for example, those described in BenMohamed L, Krishnan R, Longmate J, Auge C, Low L, Primus J, Diamond D J, Hum Immunol 61(8): 764-79, 2000 August, Related Articles, Books, Linkout Induction of CTL response by a minimal epitope vaccine in HLA A*0201/DR1 transgenic mice: dependence on HLA class II restricted T(H) response) can be used. For example, the target cells can be radiolabeled with ^51Cr and such, and cytotoxic activity can be calculated from radioactivity released from the target cells. Alternatively, it can be examined by measuring IFN-gamma produced and released by CTL in the presence of antigen-presenting cells that carry immobilized peptides, and visualizing the inhibition zone on the media using anti-IFN-gamma monoclonal antibodies.
(§1) Monocyte-derived dendritic cells (DCs) were used as antigen-presenting cells (APCs) to induce CTL responses against peptides presented on HLA. DCs were generated in vitro as described elsewhere (Horiguchi S. et al. Cancer Res. 59:2950-6). Specifically, peripheral blood mononuclear cells (PBMCs) isolated from normal volunteer (HLA-A*2402 and/or HLA-A*0201) with Ficoll-Plaque (Pharmacia) solution were separated by adherence to plastic tissue culture dish (Becton Dickinson) so as to enrich them for the monocyte fraction. The monocyte-enriched population was cultured in the presence of 1000 U/ml of GM-CSF (R&D System) and 1000 U/ml of IL-4 (R&D System) in AIM-V medium (Invitrogen) containing 2% heat-inactivated autologous serum (AS). After 7 days in the culture, the cytokine-generated DCs were pulsed with 20 mcg/ml of the synthesized peptides in the presence of 3 mcg/ml of beta2-microglobulin for 4 hrs at 20 degrees C. in AIM-V medium. These peptide-pulsed DCs were then inactivated with mitomycin C (MMC) (30 mcg/ml for 30 mins) and mixed at a 1:20 ratio with autologous CD8+ T cells, obtained by positive selection with CD8 Positive Isolation Kit (Dynal). These cultures were set up in 48-well plates (Corning); each well contained 1.5×10^4 peptide-pulsed DCs, 3×10^5 CD8+ T cells and 10 ng/ml of IL-7 (R&D System) in 0.5 ml of AIM-V/2% AS. Three days later, these cultures were supplemented with IL-2 (CHIRON) to a final concentration of 20 IU/ml. On day 7 and 14, the T cells were further restimulated with the peptide-pulsed autologous DCs. The DCs were prepared each time through the same procedure described above. CTL activity was tested against peptide-pulsed A24LCL cells or T2 cells after the 3rd round of peptide stimulation on day 21.
(§2) To examine the specific CTL activity, IFN-gamma ELISPOT assay and IFN-gamma ELISA were performed. Briefly, peptide-pulsed A24-LCL, T2 cell (1×10^4/well) or the cells endogenously expressing Foxp3 and HLA molecule was prepared as a stimulator cells. Cultured CTL lines in 48 wells were used as a responder cells. IFN-gamma ELISPOT assay and IFN-gamma ELISA were performed under manufacture procedure.

The test system of assay [2] is peptide-pulsed A24LCL cells. Put plainly: IFN-gamma ELISPOT on CTLs induced with HLA-A2402 restricted Foxp3 peptides. It counts as cell-based, human. The settings on record: FIG. 1A/1B.
Text: as §1, §2
CTLs for the peptides derived from Foxp3 protein were generated according to the method described in the “Materials and Methods”, supra.

For a further assay, the system named is peptide-pulsed T2 cells. In words: IFN-gamma ELISPOT on CTLs induced with HLA-A0201 restricted Foxp3 peptides. It counts as cell-based, human. The settings on record: FIG. 2A/2B/2C.
Text: as §1, §2
Resulting CTLs showing detectable specific CTL activity were shown in FIG. 2A, FIG. 2B and FIG. 2C when performed by IFN-gamma ELISPOT assay.

Another assay addresses T1, HLA-A2 molecule (Homo sapiens, UniProt P04439, D140Y/D185E/D98H/E176V/E277Q/G131W/G231S/I119V/I121R/I166T/I218V/L300P/L318F/N151K/N90K/P208A/P217A/Q86G/Q94H/R138H/R169H/T345S).
T1 construct: peripheral blood mononuclear cells (PBMCs) isolated from normal volunteer (HLA-A*2402 and/or HLA-A*0201); endogenous in cells; host or cells: monocyte-derived dendritic cells of HLA-A*0201 volunteers; T2 cells as stimulators in the read-out
Put plainly: CTL induction with Foxp3-9-252 substitutions restricted HLA-A*0201. It counts as cell-based. The conditions noted are these: FIG. 7C; for IFN-gamma production compared with the control: positive wells. On the procedure:
In FIG. 7C CTLs could be induced by stimulation with Foxp3-9-252 substitutions targeted HLA-A2 molecule. CTLs for all substituted peptides targeted HLA-A2 molecule were generated in the way as described in “Materials and Methods”. […] CTL line induced with Foxp3-9-252-9V peptide was used as responder cells. T2 cells incubated with Foxp3-9-252-9V (-solid circle-) or Foxp3-9-252-WT (-open circle-) peptide and without any peptide (-open square-) were used as stimulator cells in this assay (1×10^4 cells/well).
as §1, §2
On the other hand, the present inventers attempted the induction of CTLs using all substitutions restricted HLA-A*0201 including Foxp3-9-252-9V peptide. […] After CTL line induced by stimulation with Foxp3-9-252-9V was established by in vitro expansion, the CTL activity was determined by using stimulator cells pulsed with Foxp3-9-252-WT or Foxp3-9-252-9V peptide.

This is an account of results in patent US8563516B2, “Foxp3 peptide vaccine” (OncoTherapy Science, Inc., priority 2007, dated 2013).

Regarding “RPPFTYATL (peptide vaccine) [SEQ ID NO 8]”, in assay [1], the “specific CTL activity” value was “significant and specific CTL activity”; the “establishment of CTLs” value is “CTLs were successfully established”. In addition, in assay [2], the “IFN-gamma production of CTLs stimulated with peptide, compared with the control” value is “potent IFN-gamma production”.

For the sequence “QLQLPTLPL (peptide vaccine) [SEQ ID NO 18]”, in assay [1], the “specific CTL activity” value was “significant and specific CTL activity”; the “establishment of CTLs” value is “CTLs were successfully established”. In addition, in the assay on peptide-pulsed T2 cells, the “IFN-gamma production of CTLs stimulated with peptide, compared with the control” value is “potent IFN-gamma production”.

For the sequence “KLMAMQAHL (peptide vaccine) [SEQ ID NO 97]”, in the assay with HLA-A2 molecule, the “CTL induction by stimulation with substituted peptide” value is recorded as “CTLs were induced”. The “IFN-gamma production compared with the control” value with HLA-A2 molecule (listed as Foxp3-9-252-3M) is recorded as “showed IFN-gamma production”; in the assay with HLA-A2 molecule (listed as Foxp3-A02-9-252-3M) it was “peptide-dependent IFN-gamma production”.

For “LVLEKEKLSA (peptide vaccine) [SEQ ID NO 37]”, in assay [1], the “specific CTL activity” value is “significant and specific CTL activity”; the “establishment of CTLs” value is given as “CTLs were successfully established”. For the same sequence, the “IFN-gamma production of CTLs stimulated with peptide, compared with the control” value in the assay with peptide-pulsed T2 cells is listed as “potent IFN-gamma production”.

Take “KLLAMQAHL (peptide vaccine) [SEQ ID NO 98]”: in the assay with HLA-A2 molecule, the “CTL induction by stimulation with substituted peptide” value is reported as “CTLs were induced”. The “IFN-gamma production compared with the control” value in the assay with HLA-A2 molecule (listed as Foxp3-9-252-3L) is “showed IFN-gamma production”; with HLA-A2 molecule (listed as Foxp3-A02-9-252-3L) it was “peptide-dependent IFN-gamma production”.

For “VFEEPEDFL (peptide vaccine) [SEQ ID NO 4]”, in assay [1], the “specific CTL activity” value is “significant and specific CTL activity”; the “establishment of CTLs” value is “CTLs were successfully established”. Moreover, in assay [2], the “IFN-gamma production of CTLs stimulated with peptide, compared with the control” value was “potent IFN-gamma production”.

As to “LLQREMVQSL (peptide vaccine) [SEQ ID NO 28]”, in assay [1], the “specific CTL activity” value was “significant and specific CTL activity”; the “establishment of CTLs” value was “CTLs were successfully established”. The “IFN-gamma production of CTLs stimulated with peptide, compared with the control” value with peptide-pulsed T2 cells is “potent IFN-gamma production”.

In the case of “LQLPTLPLV (peptide vaccine) [SEQ ID NO 16]”, in assay [1], the “specific CTL activity” value was “significant and specific CTL activity”; the “establishment of CTLs” value is on record as “CTLs were successfully established”. Moreover, the “IFN-gamma production of CTLs stimulated with peptide, compared with the control” value in the assay on peptide-pulsed T2 cells is “potent IFN-gamma production”.

With “SYPLLANGV (peptide vaccine) [SEQ ID NO 9]”, in assay [1], the “specific CTL activity” value was “significant and specific CTL activity”; the “establishment of CTLs” value is recorded as “CTLs were successfully established”. The “IFN-gamma production of CTLs stimulated with peptide, compared with the control” value in assay [2] was “potent IFN-gamma production”.

For the sequence “TLNEIYHWFT (peptide vaccine) [SEQ ID NO 22]”, in assay [1], the “specific CTL activity” value is “significant and specific CTL activity”; the “establishment of CTLs” value is listed as “CTLs were successfully established”. In addition, in the assay on peptide-pulsed T2 cells, the “IFN-gamma production of CTLs stimulated with peptide, compared with the control” value is “potent IFN-gamma production”.

On to “KFHNMRPPF (peptide vaccine) [SEQ ID NO 5]”, for which, in assay [1], the “specific CTL activity” value was “significant and specific CTL activity”; the “establishment of CTLs” value is reported as “CTLs were successfully established”. Besides, in assay [2], the “IFN-gamma production of CTLs stimulated with peptide, compared with the control” value is “potent IFN-gamma production”.

For “WFTRMFAFF (peptide vaccine) [SEQ ID NO 7]”, in assay [1], the “specific CTL activity” value is “significant and specific CTL activity”; the “establishment of CTLs” value is recorded as “CTLs were successfully established”. Also, in assay [2], the “IFN-gamma production of CTLs stimulated with peptide, compared with the control” value is recorded as “potent IFN-gamma production”.

With “RTPVLQVHPL (peptide vaccine) [SEQ ID NO 12]”, in assay [1], the “specific CTL activity” value was “significant and specific CTL activity”; the “establishment of CTLs” value is reported as “CTLs were successfully established”. For the same sequence, in assay [2], the “IFN-gamma production of CTLs stimulated with peptide, compared with the control” value was “potent IFN-gamma production”.

As for “VMVAPSGARL (peptide vaccine) [SEQ ID NO 30]”, in assay [1], the “specific CTL activity” value was “significant and specific CTL activity”; the “establishment of CTLs” value was “CTLs were successfully established”. In the assay on peptide-pulsed T2 cells, the “IFN-gamma production of CTLs stimulated with peptide, compared with the control” value is recorded as “potent IFN-gamma production”.

Consider “SLFAVRRHL (peptide vaccine) [SEQ ID NO 19]”, for which, in assay [1], the “specific CTL activity” value was “significant and specific CTL activity”; the “establishment of CTLs” value is listed as “CTLs were successfully established”. For the same sequence, the “IFN-gamma production of CTLs stimulated with peptide, compared with the control” value in the assay with peptide-pulsed T2 cells is given as “potent IFN-gamma production”.

As for “IYHWFTRMF (peptide vaccine) [SEQ ID NO 3]”, in assay [1], the “specific CTL activity” value is “significant and specific CTL activity”; the “establishment of CTLs” value is given as “CTLs were successfully established”. In addition, in assay [2], the “IFN-gamma production of CTLs stimulated with peptide, compared with the control” value is “potent IFN-gamma production”.

For “GINVASLEWV (peptide vaccine) [SEQ ID NO 29]”, in assay [1], the “specific CTL activity” value was “significant and specific CTL activity”; the “establishment of CTLs” value is recorded as “CTLs were successfully established”. Also, in the assay on peptide-pulsed T2 cells, the “IFN-gamma production of CTLs stimulated with peptide, compared with the control” value is reported as “potent IFN-gamma production”.

Take “KMALTKASSV (peptide vaccine) [SEQ ID NO 24]”: in assay [1], the “specific CTL activity” value is “significant and specific CTL activity”; the “establishment of CTLs” value is on record as “CTLs were successfully established”. In the assay on peptide-pulsed T2 cells, the “IFN-gamma production of CTLs stimulated with peptide, compared with the control” value is listed as “potent IFN-gamma production”.
